Entries after “also recorded” stand apart in the source; their conditions may differ. No end group written: not given here.
What was measured:
[1] = system: hairless rat skin burn wound; test: In vivo wound healing, TCA chemically induced skin burn wound; conditions: for Epidermal thickening / Fibroblast cells in test area / Inflammatory response area / Leukocyte cells in test area / Wound closure: rat model, TCA burn treated by peptide; for Wound closure: 26 days
Excerpt: The hairless rat was chosen as a suitable test model. Female hairless rats of 100 to 150 grams weight and 8 to 12 weeks age were used in the study.
As an alternative, 70% trichloroacetic (TCA) dissolved in 70% ethanol was employed to induce the dermal erosion patches. […] As the chemical burn agent, the TCA treatment inflicted on the rats far less trauma and mortality than occurred with the Phenol model.
The experimental Protocol procedure steps were as follows: • 1. The animal was anesthetized (40 mg/kg Phenobarbital). • 2. Color photographs of the animal's back (with six separate peels) were taken before each treatment and daily thereafter. • 3. Rat skin surface was prepared by wiping with 70% ethanol. Filter paper discs (1.1 cm diameter) were soaked in 70% TCA/ethanol. • 4. The discs were placed on the back of the hairless rat for 30 minutes [6 disks providing for 2 control (no peptide treatment) disks and 4 disks for peels to receive peptide treatment.] • 5. After a 30 minute burn the discs were removed. Twenty four hours later, different peptide solutions (1500 ppm in saline) were applied to four peels, and saline was applied to the two control peels. • 6. Peptide solutions (and saline for the controls) were applied to the six wounds with a soft brush each day thereafter. • 7. It took approximately one month for the wounds to heal (complete skin closure with stabilized epidermis), after which the animal was sacrificed. • 8. The treated skin was harvested, section stained with trichrome, and mounted on slides.
The percentage of wound closure for each peel (six sites) was measured each day until the animal was sacrificed. The percentage closure was determined by measuring on the animal photographs the area of the remaining scab relative to the area of the initial scar after the burn. These measurements were made by digitizing and analyzing the peels using the Sigma Plot ProScan 4 program.
This provided a measure of the post-TCA burn treatment of the inflammatory response in each peel site.
The extent of epidermal thickening (hyperkeratosis) at each site was also determined by measurement with the Sigma Plot program applied to the stained section slides of the various wound areas and the normal untreated skin (control) surrounding the peels. At magnifications of 100× to 320×, the microphotographs of the color slides provided a powerful tool for such quantification of the extent of hyperkeratosis evident in each peel.
Treatment of the section slides with selective stains produced identifiable evidence of the presence of both leukocyte and fibroblast cells in the wound areas. This was also quantified by the Sigma Plot program.
The above described animal model and protocols were employed in the testing of approximately 20 of the peptides listed in Table 48 (and other peptides for comparison) as preferred FLAK peptides for wound healing.

[2] = system: laminin; test: Laminin stimulation, ELISA on fibroblast cell lines; type: cell-based
Description: Fibroblast cell lines were cultured under standard conditions and assayed for collagen and laminin using an ELISA system manufactured by Panvera (Madison, Wis.). Antibodies for collagen and laminin manufactured by Takara Shuzo Co., Ltd Japan. […] The other three peptides tested neither stimulated nor inhibited production (i.e. no effect was observed).

[3] = system: S. pneumoniae C719; test: Antimicrobial assays II, NCCLS broth microdilution MIC; type: cell-based, Streptococcus pneumoniae; conditions: mean of three, in µg/mL
[4] = system: Pseudomonas aeruginosa; test: Serum inactivation of peptides, serum MIC; type: cell-based; conditions: for MIC 30 min treatment: sheep serum 37° C. 30 minutes; for MIC 2 hr treatment: sheep serum 37° C. 2 hours
Description: Subsequently, the serum MICs against Pseudomonas aeruginosa were conducted to determine extent of serum inactivation of the peptides.

[5] = system: S. epidermidis C621; type: cell-based, Staphylococcus epidermidis; conditions: mean of three; 16 to 20 hours at 35° C.
[6] = Solubility of peptides in sheep serum; type: physicochemical
[7] = system: P. acne ATCC 6919; test: Antimicrobial assays II, NCCLS broth microdilution MIC; type: cell-based, Propionibacterium acnes; conditions: mean of three, in µg/mL
[8] = system: E. coli UB1005; type: cell-based, Escherichia coli; conditions: mean of three; 16 to 20 hours at 35° C.; in µg/mL
[9] = system: S. typhimurium 14028S; type: cell-based, Salmonella typhimurium; conditions: mean of three; 16 to 20 hours at 35° C.; in µg/mL
[10] = system: P. aeruginosa H374; type: cell-based, Pseudomonas aeruginosa; conditions: mean of three; 16 to 20 hours at 35° C.
[11] = system: human red blood cells (RBC); test: in vitro; type: cell-based; conditions: hemolytic assay, concentration at 50% hemolysis, 1 hour at 37° C.

| Substance | Epidermal thickening [1] | Fibroblast cells in test area [1] | Inflammatory response area [1] | Leukocyte cells in test area [1] | Wound closure [1] | Laminin stimulation [2] [%] | S. pneumoniae MIC [3] | S. epidermidis C621 MIC [5] [µg/mL] | P. acne MIC [7] | E. coli UB1005 MIC [8] | S. typhimurium 14028S MIC [9] | P. aeruginosa H374 MIC [10] [µg/mL] | further results |
| --- | --- | --- | --- | --- | --- | --- | --- | --- | --- | --- | --- | --- | --- |
| FALKALKKLKKALKKAL-NH2 [P153] | 25 % of control (TCA only) | 350 % of normal skin | 7 % of healed scar | 235 % of normal skin | 99.1 % of initial wound | 32 | 8 | 4 | 4 | – | – | – | rate of wound closure ([1]; hairless rat, full wound closure at 26 days): small advantage in rate of wound closure over the other peptides and no peptide; ability to limit post-TCA burn inflammatory responses ([1]; hairless rat, peptide solutions 1500 ppm in saline, topical daily): superior in this respect; hyperkeratosis (epidermal thickening) ([1]; hairless rat, peptide solutions 1500 ppm in saline, topical daily, listed as SEQ ID NO:115): lowest evidence of hyperkeratosis (epidermal thickening); also recorded: substantially no hyperkeratosis as compared to the TCA burn untreated control; MIC 30 min treatment ([4]; first of two columns): 10 µg/mL; MIC 30 min treatment ([4]; second of two columns): 5 µg/mL; MIC 2 hr treatment ([4]; first of two columns): 20 µg/mL; MIC 2 hr treatment ([4]; second of two columns): 5 µg/mL; change of activity by exposure to serum (serum MIC against Pseudomonas aeruginosa) ([4]; sheep serum, […], 37° C. for 30 minutes or 2 hours): only modestly decreased; Solubility ([6]; sheep serum, […], 70% serum): Soluble; Solubility ([6]; sheep, 70% sheep serum): ≥ 1280 µg/mL |
| FAVGLRAIKRALKKLRRGVRKVAKDL-NH2 [P157, reference compound] | 80 % of control (TCA only) | 450 % of normal skin | 25 % of healed scar | 265 % of normal skin | 95.2 % of initial wound | – | 16 | 4 | 4 | 8 | 8 | 8 | – |
| MPKWKVFKKIEKVGRNIRNGIVKAGPAIAVLGEAKALG-NH2 [P12, reference compound] | – | – | – | – | – | 0 | – | – | – | 1 | 4 | 8 | LD50 [11]: > (> indicates greater than 1000) |

— US20050209157A1, “Short bioactive peptides and methods for their use” (priority 2001, published 2005)
